Measured values published in patent publication US20220151982A1, “CANNABINOID COMPOSITIONS AND USE THEREOF” (priority 2019, published 2022).
“And” between values parts separate entries of the source, which are not always exact repeats. Equal values may be shown once. Read-outs that look alike come from different tables or passages of the source.

Assays:
[1] = tested on: Methicillin-resistant Staphylococcus aureus (MRSA); assay: MRSA killing by CFU counting after 4 h incubation; conditions: for Percentage death of MRSA cells, Antibiotics alone: antibiotic at MIC value; for Percentage death of MRSA cells, Antibiotics + CBD (565 μM): antibiotic at MIC value + CBD 565 μM
[2] = tested on: resistant ovarian cancer cells (NAR); format: cell-based; conditions: 4 h exposure, XTT after 72 h
Method: (§1) A non-resistant ovarian cancer cells lines (OVCAR8) and a resistant ovarian cancer cells line (NAR) were exposed to various concentrations of Doxorubicin (Dox), Tetrahydrocannabinolic acid (THCa) and combinations thereof. The cells were exposed to the treatment agents for 4 hours, after which the media was replaced. Cell survival/death levels were measured after 72 hours by XTT. The percent of cell survival was determined as the absorbance signal with subtracted background (media only) and normalized by mock. Each experimental combination was performed in quadruplicate/pentaplicate.
as §1, with “cancer cells line (OVCAR8) and” for “cancer cells lines (OVCAR8) and”, “ovarian cancer cell line (NAR)” for “ovarian cancer cells line (NAR)”, “Doxorubicin (Dox), Cannabidiol (CBD) and combinations” for “Doxorubicin (Dox), Tetrahydrocannabinolic acid (THCa) and combinations”
as §1, with “The resistant” for “A non-resistant ovarian cancer cells lines (OVCAR8) and a resistant”, “(NAR) was” for “(NAR) were”, “of Taxol (Paclitaxel),” for “of Doxorubicin (Dox),”
as §1, with “The resistant” for “A non-resistant ovarian cancer cells lines (OVCAR8) and a resistant”, “(NAR) was” for “(NAR) were”, “of Cisplatin,” for “of Doxorubicin (Dox),”

[3] = tested on: non-resistant ovarian cancer cells (OVCAR8); assay: XTT cell survival/death, non-resistant ovarian cancer cells; format: cell-based; conditions: Doxorubicin 30 μM alone, 4 h exposure, XTT after 72 h
Method: as §1
as §1, with “cancer cells line (OVCAR8) and” for “cancer cells lines (OVCAR8) and”, “ovarian cancer cell line (NAR)” for “ovarian cancer cells line (NAR)”, “Doxorubicin (Dox), Cannabidiol (CBD) and combinations” for “Doxorubicin (Dox), Tetrahydrocannabinolic acid (THCa) and combinations”

[4] = tested on: resistant ovarian cancer cells (NAR); format: cell-based; conditions: CBN 674 or 270 μM added to Dox
[5] = tested on: lung cancer resistant cells (NCI-H69/LX4); format: cell-based; conditions: 4 h exposure, XTT after 72 h
Method: as §1, with “multi-drug” for “non-resistant ovarian cancer cells lines (OVCAR8) and a”, “small cell lung” for “ovarian”, “(NCI-H69/LX4) was” for “(NAR) were”, “Vincristine,” for “various concentrations of Doxorubicin (Dox),”, “combination” for “combinations”

[6] = tested on: resistant pancreatic cancer cells (PANC-1); format: cell-based; conditions: 4 h exposure, XTT after 72 h
Method: as §1, with “A” for “A non-resistant ovarian cancer cells lines (OVCAR8) and a”, “pancreatic” for “ovarian”, “(PANC-1) was” for “(NAR) were”, “fluorouracil (5-FU),” for “various concentrations of Doxorubicin (Dox),”, “combination” for “combinations”

NAR cell's efflux pumps = assay: Doxorubicin efflux into the media from pre-treated resistant cells; format: cell-based; conditions: NAR pre-treated with sub-lethal Doxorubicin; media with vs without cannabinoid, 5 minutes to 24 hours
Method: A resistant ovarian cancer cell line (NAR) was pre-treated with sub-lethal concentrations of Doxorubicin (Dox), and then incubated in media with and without THCa or CBD for time periods ranging from 5 minutes to 24 hours (a total of 12 time points were measured). The ability of the cells to efflux Dox into the media was measured and compared between the cells grown in the presence and absence of THCa (FIG. 8A) or CBD (FIG. 8B).

## CN[C@H](CC(C)C)C(=O)N[C@H]1C(=O)N[C@@H](CC(N)=O)C(=O)N[C@H]2C(=O)N[C@H]3C(=O)N[C@H](C(=O)N[C@H](C(=O)O)c4cc(O)cc(O)c4-c4cc3ccc4O)[C@H](O)c3ccc(c(Cl)c3)Oc3cc2cc(c3O[C@@H]2O[C@H](CO)[C@@H](O)[C@H](O)[C@H]2O[C@H]2C[C@](C)(N)[C@H](O)[C@H](C)O2)Oc2ccc(cc2Cl)[C@H]1O [Vancomycin]
[1]; Table 1, 4 hours
  Percentage death of MRSA cells, Antibiotics alone: 8%
[1]; Table 2, 4 hours
  Percentage death of MRSA cells, Antibiotics + CBD (565 μM): 61%
  Percentage death of MRSA cells, Antibiotics alone: 8%

## COc1cccc2c1C(=O)c1c(O)c3c(c(O)c1C2=O)C[C@@](O)(C(=O)CO)C[C@@H]3O[C@H]1C[C@H](N)[C@H](O)[C@H](C)O1 [Doxorubicin]
[2]; Doxorubicin 30 μM alone
  cell death: 16% and 20%
[2]; Doxorubicin 30 μM alone, listed as Dox
  cell death: 20%
[3]
  cell death: 94%

## CCCCCc1cc(O)c2c(c1)OC(C)(C)c1ccc(C)cc1-2 [CBN, Cannabinol]
[4]
  effect on Dox toxicity (enhancement of cell death): did not significantly enhance cell death

## CC[C@]1(O)C[C@H]2CN(CCc3c([nH]c4ccccc34)[C@@](C(=O)OC)(c3cc4c(cc3OC)N(C=O)[C@H]3[C@@](O)(C(=O)OC)[C@H](OC(C)=O)[C@]5(CC)C=CCN6CC[C@]43[C@@H]65)C2)C1 [Vincristine]
[5]; Vincristine 10 μM alone
  cell death: 17%

## O=C(O)c1cn(C2CC2)c2cc(N3CCNCC3)c(F)cc2c1=O [Ciprofloxacin]
[1]; Table 1, 4 hours
  Percentage death of MRSA cells, Antibiotics alone: 14%
[1]; Table 2, 4 hours
  Percentage death of MRSA cells, Antibiotics + CBD (565 μM): 54%
  Percentage death of MRSA cells, Antibiotics alone: 14%

## CCCCCc1cc2c(c(O)c1C(=O)O)[C@@H]1C=C(C)CC[C@H]1C(C)(C)O2 [THCa, tetrahydrocannabinolic acid]
[2]; THCa 86 μM + Doxorubicin 30 μM
  cell death: 64%
[2]; THCa 172 μM + Doxorubicin 30 μM
  cell death: 86%
[2]; THCa 247 μM + Cisplatin 115 μM
  cell death: 94%
[2]; THCa 247 μM + Taxol 50 μM
  cell death: 94%
[2]; THCa 247 μM alone
  cell death: 20% and 18%
[1]; Table 1, THCa 88 μM without antibiotic, 4 hours
  Percentage death of MRSA cells, THCa (88 μM) alone: 6%
[6]; THCa 247 μM + 5-FU 2 μM
  cell death: 77%
[6]; THCa 247 μM alone
  cell death: 8%
NAR cell's efflux pumps
  decrease of Dox efflux levels: ~50%
[5]; THCa 247 μM + Vincristine 10 μM
  cell death: 95%
[5]; THCa 247 μM alone
  cell death: 12%

## Gentamycin
[1]
  Percentage death of MRSA cells, Antibiotics + THCa (88 μM): 85%
[1]; Table 1, 4 hours
  Percentage death of MRSA cells, Antibiotics alone: 15%
[1]; Table 2, 4 hours
  Percentage death of MRSA cells, Antibiotics + CBD (565 μM): 58%
  Percentage death of MRSA cells, Antibiotics alone: 15%

## CN(C)[C@@H]1C(O)=C(C(N)=O)C(=O)[C@@]2(O)C(O)=C3C(=O)c4c(O)cccc4[C@@](C)(O)[C@H]3C[C@@H]12 [Tetracycline]
[1]; Table 1, 4 hours
  Percentage death of MRSA cells, Antibiotics alone: 7%
[1]; Table 2, 4 hours
  Percentage death of MRSA cells, Antibiotics + CBD (565 μM): 42%
  Percentage death of MRSA cells, Antibiotics alone: 7%
[1]; Table 2, 4 hours, listed as tetracycline
  Percentage death of MRSA cells, Antibiotics + CBD (565 μM): 42%

## CO[C@H]1/C=C/O[C@@]2(C)Oc3c(C)c(O)c4c(O)c(c(/C=N/N5CCN(C)CC5)c(O)c4c3C2=O)NC(=O)/C(C)=C\C=C\[C@H](C)[C@H](O)[C@@H](C)[C@@H](O)[C@@H](C)[C@H](OC(C)=O)[C@@H]1C [Rifampicin]
[1]; Table 1, 4 hours
  Percentage death of MRSA cells, Antibiotics alone: 17%
[1]; Table 2, 4 hours
  Percentage death of MRSA cells, Antibiotics + CBD (565 μM): 73%
  Percentage death of MRSA cells, Antibiotics alone: 17%
[1]; Table 2, 4 hours, listed as rifampicin
  Percentage death of MRSA cells, Antibiotics + CBD (565 μM): 73%

## C=C(C)[C@@H]1CCC(C)=C[C@H]1c1c(O)cc(CCCCC)cc1O [CBD, 2-[(6R)-3-Methyl-6-prop-1-en-2-yl-lcyclohex-2-envyl]-5pentylbenzene-1,3-diol]
[2]; CBD 283 μM + Doxorubicin 30 μM
  cell death: 35%
[2]; CBD 565 μM + Doxorubicin 30 μM
  cell death: 75%
[1]; Table 2, CBD 565 μM without antibiotic, 4 hours
  Percentage death of MRSA cells, CBD (565 μM) alone: 9%
NAR cell's efflux pumps
  decrease of Dox efflux levels: ~40%

## N.N.[Cl][Pt][Cl] [Cisplatin]
[2]; Cisplatin 115 μM alone
  cell death: 12%

## O=C(N[C@H](CO)[C@H](O)c1ccc([N+](=O)[O-])cc1)C(Cl)Cl [Chloramphenicol]
[1]; Table 1, 4 hours
  Percentage death of MRSA cells, Antibiotics alone: 12%
[1]; Table 2, 4 hours
  Percentage death of MRSA cells, Antibiotics + CBD (565 μM): 58%
  Percentage death of MRSA cells, Antibiotics alone: 12%

## O=c1[nH]cc(F)c(=O)[nH]1 [5-FU, fluorouracil]
[6]; 5-FU 2 μM alone
  cell death: 14%

## CC(=O)O[C@H]1C(=O)[C@@]2(C)[C@H]([C@H](OC(=O)c3ccccc3)[C@]3(O)C[C@H](OC(=O)[C@H](O)[C@@H](NC(=O)c4ccccc4)c4ccccc4)C(C)=C1C3(C)C)[C@]1(OC(C)=O)CO[C@@H]1C[C@@H]2O [Taxol, Paclitaxel]
[2]; Taxol 50 μM alone
  cell death: 23%
